Test results reported in patent US5550139A, “Serine protease inhibitors” (The Wichita State University, priority 1994, dated 1996).
Blank lines part the entries; values can stand above or below the compound they belong to.

Legend:
Proteinase-3 = target: T1, Proteinase-3 (Homo sapiens, UniProt P24158); assay: Proteinase-3 inhibition; type: biochemical; parameters: % Proteinase-3 Inhibition: concentration or dose not given beside the values; details: Table 7
T1 sequence (P24158 28-248 limits assumed): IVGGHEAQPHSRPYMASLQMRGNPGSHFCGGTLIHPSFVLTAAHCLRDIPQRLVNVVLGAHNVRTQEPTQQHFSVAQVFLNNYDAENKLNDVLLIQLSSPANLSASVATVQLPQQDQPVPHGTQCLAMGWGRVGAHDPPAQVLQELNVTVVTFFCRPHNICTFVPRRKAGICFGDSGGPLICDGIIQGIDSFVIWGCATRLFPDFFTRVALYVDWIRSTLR
Excerpt: (§1) An in vitro assay can be used to screen compounds of the invention for the ability to reduce or inhibit serine proteinase activity. The human leukocyte elastase (HLE), cathepsin G (Cath G), and proteinase-3 assays have each been described (Groutas et al., J. Med. Chem. 32:1607-1611, 1989; Groutas et al., Arch. Biochem. Biophys. 294:144-146, 1992; Kao et al., J. Clin. Invest. 82:1963-1973, 1988, each incorporated by reference herein). The pseudo first-order inactivation rate constants (kobs) were obtained from plots of ln(vt /vo) vs t, and expressed in terms of the apparent second-order inactivation rate constant, kobs /[I] M^-1 s^-1 (Tables 1-7). Tables 1-7 disclose the activity of preferred compounds of the invention as inhibitors of HLE and Cath G. Table 7 discloses the activity of Compounds 4A (C) and 3E (D) as inhibitors of Proteinase-3 activity. Compounds (A) and (B) have been disclosed previously (Groutas et al., Bioorganic and Med. Chem. 1(4):273-277, 1993; Groutas et al., J. Med. Chem. 36:3178, 1993).

[1] = target: T2, human leukocyte elastase (HLE) (Homo sapiens, UniProt P08246); assay: Inactivation of human leukocyte elastase (kobs/[I]); type: biochemical; details: for HLE % inhibition: Table 1B footnote, [I]/[E] ratio of 200, 10 minute incubation period
T2 construct: purchased Elastin Products Co., Owensville, Mo
T2 sequence (P08246 30-247 limits assumed): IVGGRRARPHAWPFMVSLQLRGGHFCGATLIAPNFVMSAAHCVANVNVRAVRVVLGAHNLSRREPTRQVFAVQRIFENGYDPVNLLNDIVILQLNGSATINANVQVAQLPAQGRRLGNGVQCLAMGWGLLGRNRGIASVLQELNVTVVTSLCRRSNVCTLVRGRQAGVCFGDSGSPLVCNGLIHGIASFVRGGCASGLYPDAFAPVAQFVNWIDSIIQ
Excerpt: as §1
XII. Materials: Human leukocyte elastase was purchased from Elastin Products Co., Owensville, Mo.
(§2) Human leukocyte cathepsin G was obtained from Athens Research and Technology, Athens, Ga. Methoxysuccinyl Ala-Ala-Pro-Val p-nitroanilide and methoxysuccinyl Ala-Ala-Pro-Phe p-nitroanilide were purchased from Sigma Chemicals Co., St. Louis, Mo. Baker-analyzed 60-200 mesh silica gel was used for flash chromatography.

[2] = test system: neutrophil diapedesis (peritonitis); assay: Inhibition of neutrophil diapedesis after experimentally induced (starch) peritonitis; type: in vivo, rat; details: 8 mg/kg i.v. single dose; for Total Number of Cells Lavaged at 4 Hours, Lymphocytes / Total Number of Cells Lavaged at 4 Hours, Macrophages Monocytes / Total Number of Cells Lavaged at 4 Hours, Neutrophils / Total Number of Cells Lavaged at 4 Hours, Total Cells / Abdominal Lavage Cell Distribution, Lymphocytes / Abdominal Lavage Cell Distribution, Macrophages Monocytes / Abdominal Lavage Cell Distribution, Neutrophils: Experiment 2, starch; for Abdominal Lavage Cell Distribution, Lymphocytes / Abdominal Lavage Cell Distribution, Macrophages Monocytes / Abdominal Lavage Cell Distribution, Neutrophils: 4 hours; for effect on neutrophil diapedesis (in words): rat
Procedure: (§3) Each compound (A-D) was individually injected into the tail vein of a rat in a single dose (8 mg/kg). After injection, peritonitis was induced in the rat by an IP (intraperitoneal) injection of 1 ml of a 0.1% soluble starch solution. After 4 hours, the peritoneal cavity was lavaged with saline in order to determine the number and type of cells responding to peritonitis. Cell numbers were determined by a Coulter counter and cell type (e.g. lymphocytes, neutrophils, macrophages and monocytes) by standard Cytospin and Giemsa staining. Cell number and type was evaluated after IP injection of saline (negative control, no inflammation), starch (positive control, inflammation) or starch with IV injection of an inhibitor (experimental, inflammation). Inhibitors were dissolved in DMSO prior to administration.

rat = assay: Overt toxicity in injected rats; type: in vivo; details: rat peritonitis test, 8 mg/kg i.v. single dose
Procedure: Inhibitor A or B were each injected twice daily into the tail vein of a rat (8 mg/kg) over a period of three days. Inflammation was not induced in these rats. […] WBC=white blood cells; PMN=polymorphonuclear leukocytes; The elastase assay has been disclosed above.
as §3

cathepsin G (Cath G) = target: T3, cathepsin G (Cath G) (Homo sapiens, UniProt P08311); assay: Inactivation of human leukocyte cathepsin G (kobs/[I]); type: biochemical; details: for kinact/KI: pH 7.5
T3 construct: purchased Athens Research and Technology, Athens, Ga
T3 sequence (P08311 21-244 limits assumed): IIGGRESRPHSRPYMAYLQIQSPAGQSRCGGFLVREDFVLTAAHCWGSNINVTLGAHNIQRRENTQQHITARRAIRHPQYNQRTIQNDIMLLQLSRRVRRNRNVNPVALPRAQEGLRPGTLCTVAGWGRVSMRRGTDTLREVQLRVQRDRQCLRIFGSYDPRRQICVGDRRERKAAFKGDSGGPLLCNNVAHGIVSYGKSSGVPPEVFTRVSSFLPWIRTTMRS
Procedure: Human leukocyte cathepsin G (1.33 uM) is incubated with compound 8 (133 uM) (a) or compound 10 (13.3 uM) (b) in 0.1M HEPES buffer, pH 7.5, and 10% DMSO. Aliquots were withdrawn at different time intervals and assayed for enzymatic activity using methoxysuccinyl Ala-Ala-Pro-Phe p-nitroanilide.
Human leukocyte cathepsin G (1.48 μM was incubated with inhibitor 5A (1.48 μM in 0.1M HEPES buffer, pH 7.5, and 1% DMSO. Aliquots were withdrawn at different time intervals and assayed for enzymatic activity using methoxysuccinyl Ala-Ala-Pro-Phe p-nitroanilide.
as §1, §2

kinact/KI ([1]; Table 4): 240 M⁻¹ s⁻¹ | kinact/KI (cathepsin G (Cath G); Table 4): 5520 M⁻¹ s⁻¹
SMILES: O=C(/C=C/Sc1ccccc1)OCN1C(=O)C(Cc2ccccc2)CS1(=O)=O (centres unmarked) [Compound 7C]

kinact/KI ([1]; Table 2): 810 M⁻¹ s⁻¹
SMILES: O=C(CN1[C@@H](Cc2ccccc2)C(=O)N(CF)S1(=O)=O)OCc1ccccc1 [Compound 5A, (S) -Benzyl-5(benzyloxycarbonylmethyl)-2-fluoromethyl-3-oxo-1,2,5-thiadiazolidine 1.1-dioxide]
time-dependent loss of serine protease activity (cathepsin G (Cath G); FIG. 6, Cath G 1.48 μM, inhibitor 1.48 μM, 0.1M HEPES pH 7.5, 1% DMSO): time-dependent loss of serine protease activity

kinact/KI ([1]; Table 3): 520 M⁻¹ s⁻¹ | kinact/KI (cathepsin G (Cath G); Table 3): 360 M⁻¹ s⁻¹
SMILES: O=C(OCN1C(=O)C(Cc2ccccc2)CS1(=O)=O)[C@H]1CCCN1C(=O)OCc1ccccc1 (some centres unmarked) [Compound 7B]

kinact/KI ([1]; Table 4): 380 M⁻¹ s⁻¹ | kinact/KI (cathepsin G (Cath G); Table 4): 2770 M⁻¹ s⁻¹
SMILES: O=C(C=CS(=O)(=O)c1ccccc1)OCN1C(=O)C(Cc2ccccc2)CS1(=O)=O (centres unmarked) [Compound 8C]

kinact/KI ([1]; Table 3): 220 M⁻¹ s⁻¹ | kinact/KI (cathepsin G (Cath G); Table 3): 7700 M⁻¹ s⁻¹
SMILES: O=C(OCN1C(=O)C(Cc2ccccc2)CS1(=O)=O)[C@@H]1CCCN1C(=O)OCc1ccccc1 (some centres unmarked) [Compound 5B]

More lines, now with the values behind:

SMILES: O=C(CSc1ccccc1)OCN1C(=O)c2ccccc2S1(=O)=O
% Proteinase-3 Inhibition (Proteinase-3): 66%

SMILES: O=C1C(Cc2ccccc2)N(Cc2ccccc2)S(=O)(=O)N1CF (centres unmarked) [drawing 93 R = benzyl]
% Proteinase-3 Inhibition (Proteinase-3): 43%

SMILES: O=C1C(Cc2ccccc2)CS(=O)(=O)N1CF (centres unmarked) [drawing 96]
Proteinase-3 Inhibition (in words) (Proteinase-3): inactive

SMILES: CC(C)CC1C(=O)N(CS(=O)(=O)c2ccccc2)S(=O)(=O)N1Cc1ccccc1 (centres unmarked) [drawing 92 R = benzyl]
% Proteinase-3 Inhibition (Proteinase-3): 86%

SMILES: CC(C)C[C@H]1C(=O)N(CS(=O)(=O)c2ccccc2)S(=O)(=O)N1C [Compound 3E]
inhibition of elastase (in words) [1]: an elastase inhibitor | kinact/KI ([1]; Table 6): 7580 M⁻¹ s⁻¹ | Total Number of Cells Lavaged at 4 Hours, Lymphocytes [2]: 6.4 × 10^6 | Total Number of Cells Lavaged at 4 Hours, Macrophages Monocytes [2]: 7.7 × 10^6 | Total Number of Cells Lavaged at 4 Hours, Neutrophils [2]: 17.9 × 10^6 | Total Number of Cells Lavaged at 4 Hours, Total Cells [2]: 32 × 10^6 | Abdominal Lavage Cell Distribution, Lymphocytes [2]: 20% | Abdominal Lavage Cell Distribution, Macrophages Monocytes [2]: 24% | Abdominal Lavage Cell Distribution, Neutrophils [2]: 56% | effect on neutrophil diapedesis (in words) [2]: substantially reduced neutrophil diapedesis | toxicity (in words) (rat): non-toxic

SMILES: CN1C(Cc2ccccc2)C(=O)N(CF)S1(=O)=O (centres unmarked) [drawing 93 R = methyl]
% Proteinase-3 Inhibition (Proteinase-3): 55%

SMILES: CC(C)CC1C(=O)N(CS(=O)(=O)c2ccccc2)S(=O)(=O)N1C (centres unmarked) [drawing 92 R = methyl]
% Proteinase-3 Inhibition (Proteinase-3): 84%

SMILES: CC(C)(C)OC(=O)CN1[C@@H](Cc2ccccc2)C(=O)N(CF)S1(=O)=O [drawing 93 R = CH2 COOt-BOC]
% Proteinase-3 Inhibition (Proteinase-3): 33%

SMILES: C=C(N1C(=O)C(Cc2ccccc2)CS1(=O)=O)S(=O)(=O)c1ccccc1 (centres unmarked) [Compound 9, 4-Benzyl-2-(1-phenylsulfonylvinyl)isothiazolidin-3-one 1,1-dioxide]
HLE % inhibition [1]: 20% | kinact/KI (cathepsin G (Cath G); Table 1B): 340 M⁻¹ s⁻¹

SMILES: O=C(CCc1ccccc1)OCN1C(=O)C(Cc2ccccc2)CS1(=O)=O (centres unmarked) [Compound 2C]
kinact/KI ([1]; Table 4): 680 M⁻¹ s⁻¹ | kinact/KI (cathepsin G (Cath G); Table 4): 640 M⁻¹ s⁻¹

SMILES: O=C1C(Cc2ccccc2)CS(=O)(=O)N1C(CF)Sc1ccccc1 (centres unmarked) [Compound 7, 4-Benzyl-2-(2-fluoro-1-phenylthioethyl) isothiazolidin-3-one 1,1-dioxide]
HLE % inhibition [1]: 24% | kinact/KI (cathepsin G (Cath G); Table 1B): 40 M⁻¹ s⁻¹

SMILES: O=C1C(Cc2ccccc2)CS(=O)(=O)N1CS(=O)(=O)c1ccccc1 (centres unmarked) [Compound 10, 4-Benzyl-2-(1-phenylsulfonylmethyl)isothiazolidin-3-one 1,1-dioxide]
HLE % inhibition [1]: 12% | time-dependent loss of serine protease activity (cathepsin G (Cath G); FIG. 5, Cath G 1.33 uM, inhibitor 13.3 uM, 0.1M HEPES pH 7.5, 10% DMSO): time-dependent loss of serine protease activity | kinact/KI (cathepsin G (Cath G); Table 1B): 960 M⁻¹ s⁻¹

SMILES: O=C(Cc1ccccc1Nc1c(Cl)cccc1Cl)OCN1C(=O)C(Cc2ccccc2)CS1(=O)=O (centres unmarked) [Compound 2]
kinact/KI ([1]; Table 1A): 30 M⁻¹ s⁻¹ | kinact/KI (cathepsin G (Cath G); Table 1A): 80 M⁻¹ s⁻¹

SMILES: O=C1c2ccccc2S(=O)(=O)N1CF [drawing 94]
% Proteinase-3 Inhibition (Proteinase-3): 79%

SMILES: CC(C)(C)OC(=O)CN1[C@@H](Cc2ccccc2)C(=O)N(CF)S1(=O)=O [Compound 4A, (S)-4-Benzyl-5(tert-butoxycarbonylmethyl)-2-fluoromethyl-3-oxo-1,2,5-thiadiazolidine 1.1-dioxide]
kinact/KI ([1]; Table 2): 490 M⁻¹ s⁻¹ | inhibition of Cath G (in words) (cathepsin G (Cath G)): an inhibitor of Cath G | Total Number of Cells Lavaged at 4 Hours, Lymphocytes [2]: 6.5 × 10^6 | Total Number of Cells Lavaged at 4 Hours, Macrophages Monocytes [2]: 6.5 × 10^6 | Total Number of Cells Lavaged at 4 Hours, Neutrophils [2]: 41.0 × 10^6 | Total Number of Cells Lavaged at 4 Hours, Total Cells [2]: 54 × 10^6 | Abdominal Lavage Cell Distribution, Lymphocytes [2]: 12% | Abdominal Lavage Cell Distribution, Macrophages Monocytes [2]: 12% | Abdominal Lavage Cell Distribution, Neutrophils [2]: 76% | effect on neutrophil diapedesis (in words) [2]: did not inhibit neutrophil diapedesis associated with peritonitis
